Laboratory results taken from patent US20110251160A1 (priority 2008, published 2011).
Where two headings read alike, the source gives them in different places.

How the values were obtained:
[1] = test system: patients with atrial fibrillation at risk of stroke
From the text: Median follow-up was 2.0 years and the primary outcome was stroke or systemic embolism.
Patients were recruited from 951 clinical centers in 44 countries. In brief, patients were eligible if they had atrial fibrillation documented on electrocardiogram at screening or within 6 months; and at least one of the following: prior stroke or transient ischemic attack; left ventricular ejection fraction less than 40%; New York Heart Association heart failure symptoms of Class 2 or greater within 6 months; age at least 75 years; or age at least 65 years with diabetes mellitus, hypertension or coronary artery disease.
The time in therapeutic range was calculated by the method of Rosendaal (Rosendaal F R, et al., A method to determine the optimal intensity of oral anticoagulant therapy, Thromb Haemost, 1993, 69:236-239), excluding INRs from the first week and after discontinuations. […] Concomitant use of aspirin (less than 100 mg/day) or other antiplatelet agents was allowed.
Liver function testing was performed monthly during the first year of follow-up.
The primary study outcome was stroke or systemic embolism. The primary safety outcome was major hemorrhage. Secondary outcomes were stroke, systemic embolism and death. Other outcomes were myocardial infarction, pulmonary embolism, transient ischemic attacks, and hospitalizations. The primary net benefit-risk outcome was the composite of stroke, systemic embolism, pulmonary embolism, myocardial infarction, death or major hemorrhage. Stroke was defined as sudden onset of focal neurological deficit consistent with the territory of a major cerebral artery and categorized as ischemic, hemorrhagic or unspecified. Hemorrhagic transformation of ischemic stroke was not considered as hemorrhagic stroke. Intracranial hemorrhage included hemorrhagic stroke and sub-dural or sub-arachnoid hemorrhage. Systemic embolism was an acute vascular occlusion of an extremity or organ documented by imaging, surgery or autopsy. Major bleeding was defined as a reduction in hemoglobin level of at least […] or transfusion of at least 2 units of blood or symptomatic bleeding in a critical area or organ. Life-threatening bleeding was a subset of major bleeding that included fatal bleeding, symptomatic intracranial bleeding, bleeding with hemoglobin decrease of more than […] or requiring transfusion of more than 4 units of blood or requiring inotropic agents or necessitating surgery. All other bleeding was considered minor.
All primary and secondary outcome events were blindly and doubly adjudicated. An international team of adjudicators reviewed documents in local languages after blinding; or documents were translated by a independent group and blinded centrally. All transient ischemic attacks were reviewed to ensure that strokes had not been missed. To detect possible unreported events, symptom questionnaires were regularly administered to patients, and adverse events and hospitalization reports were scrutinized for unreported primary or secondary outcomes.
If maximum of the two p-values was greater than 0.025, the minimum of the two p-values must be less than 0.0125, one-sided, to claim statistical significance. All analyses were based on intention-to-treat.

[2] = test system: AF patients; details: SPORTIF III (2003), cited from earlier work
[3] = test system: AF patients; details: SPORTIF V (2005), cited from earlier work
[4] = test system: AF patients; details: ACTIVE W (2006), warfarin arm; cited from earlier work
[5] = test system: patients who have nonvalvular atrial fibrillation; details: VKAs, such as warfarin; cited from earlier work
[6] = ximelagatran 36 mg b.i.d. vs. warfarin

## CC(=O)CC(c1ccccc1)c1c(O)c2ccccc2oc1=O (racemic) [Warfarin, 3-(α-acetonylbenzyl)4-hydroxycoumarin, reference compound]
[1]; Warfarin arm
  ALT or AST > 3xULN: (2.1) %
  ALT or AST > 3xULN with concurrent bilirubin > 2xULN: (0.4) %
  Adverse Event: Arthralgia: (5.5) %
  Adverse Event: Atrial fibrillation: (5.4) %
  Adverse Event: Back pain: (5.5) %
  Adverse Event: Chest pain: (5.7) %
  Adverse Event: Cough: (5.8) %
  Adverse Event: Diarrhea: (5.5) %
  Adverse Event: Dizziness: (9.3) %
  Adverse Event: Dyspepsia: (1.4) %
  Adverse Event: Dyspnoea: (9.2) %
  Adverse Event: Fatigue: (5.9) %
  Adverse Event: Nasopharyngitis: (5.5) %
  Adverse Event: Peripheral edema: (7.6) %
  Adverse Event: Upper respiratory tract infection: (5.0) %
  Adverse Event: Urinary tract infection: (5.3) %
  All Death, Rate: 4.13 /100 Person Years
  Any Major Bleeding, Rate: 3.46 /100 Person Years
  Extracranial Bleeding, Rate: 2.73 /100 Person Years
  First Hospitalization, Rate: 27.5 /100 Person Years
  Intracranial Bleeding, Rate: 0.72 /100 Person Years
  Life threatening bleeding, Rate: 1.80 /100 Person Years
  Major gastro-intestinal Bleeding, Rate: 1.03 /100 Person Years
  Major or Minor Bleeding, Rate: 23.92 /100 Person Years
  Minor Bleeding, Rate: 21.03 /100 Person Years
  Myocardial Infarction, Rate: 0.54 /100 Person Years
  Non-disabling Stroke Modified Rankin 0-2, Rate: 0.58 /100 Person Years
  Other Major bleeding, Rate: 1.80 /100 Person Years
  Pulmonary embolism, Rate: 0.09 /100 Person Years
  Reason for discontinuation: Gastrointestinal bleeding: (0.9) %
  Reason for discontinuation: Gastrointestinal disorders: (0.8) %
  Reason for discontinuation: Outcome event: (2.2) %
  Reason for discontinuation: Patient decision: (6.2) %
  Reason for discontinuation: SAE: (1.6) %
  Stroke or systemic embolism, Rate: 1.70 /100 Person Years
  Stroke, Hemorrhagic, Rate: 0.38 /100 Person Years
  Stroke, Rate: 1.58 /100 Person Years
  Study Drug Discontinuation At one year: (10) %
  Study Drug Discontinuation At two years: (19) %
  Vascular Death, Rate: 2.69 /100 Person Years
  hepatobiliary disorders (AE): (2.2) %
  hepatobiliary disorders (SAE): (0.4) %
[1]; Warfarin arm, listed as warfarin
  Study Drug Discontinuation At one year: 10%
[1]; net benefit, Warfarin arm
  Stroke, systemic embolism, pulmonary embolism, myocardial infarction death or major bleed, Rate: 7.99 /100 Person Years
[1]; warfarin
  Mortality rate, death from any cause: 4.13 % per year
  Rate of discontinuation at 2.5 years: 19%
  Rate of hemorrhagic stroke: 0.38 % per year
  Rate of major hemorrhage / major bleeding: 3.46 % per year
  Rate of myocardial infarction: 0.54 % per year
  Rate of net benefit-risk outcome (major vascular events, major bleeding and death): 7.99 % per year
  Rate of the primary outcome, stroke or systemic embolism: 1.70 % per year
[2]; [6]
  Stroke and systemic embolism (per 100 patient years): 2.3%
[2]; ximelagatran vs. warfarin
  Myocardial Infarction: 0.6%
[3]; [6]
  Stroke and systemic embolism (per 100 patient years): 1.2%
[3]; ximelagatran vs. warfarin
  Myocardial Infarction: 1.4%
[4]
  Myocardial Infarction: 0.6%
  Stroke and systemic embolism (per 100 patient years): 1.5%
[5]
  Reduction of the risk of stroke compared to control: 64%
